Laboratory results: patent US12428408B2, “Fused heterocyclic mescaline derivatives” (Enveric Biosciences Canada Inc., priority 2022, dated 2025)
Read-outs that look alike come from different tables or passages of the source.

Tests used:
5-HT2B (h) = biological target: T1, 5-HT2B (h) (Homo sapiens, UniProt P41595); assay: Competition assay to measure binding affinity at 5-HT2B receptor; conditions: test ligand 10 μM; [3H]mesulergine 2 nM
T1 construct: host or cells: CHO cells

5-HT7 (h) = biological target: T2, 5-HT7 (h) (Homo sapiens, UniProt P34969); assay: Competition assay to measure binding affinity at 5-HT7 receptor; conditions: test ligand 10 μM; [3H]LSD 4 nM
T2 construct: host or cells: HEK-293 cells

5-HT1B (h) = biological target: T3, 5-HT1B (h) (Homo sapiens, UniProt P28222); assay: Competition assay to measure binding affinity at 5-HT1B receptor; conditions: test ligand 10 μM; [3H]GR125743 1 nM
T3 construct: host or cells: Chem-1 (RBL) cells

5-HT1A receptor [1] = biological target: T4, 5-HT1A receptor (Homo sapiens, UniProt P08908); assay: 5-HT1A receptor radioligand competition assay (SPA); format: binding; conditions: competition with 0.5 nM 8-hydroxy-DPAT [3H]; test compound 3 nM to 1 mM; read-out: 5-HT1A, Ki
T4 construct: purchased Perkin Elmer 6110501400UA
T4 sequence (P08908 1-422): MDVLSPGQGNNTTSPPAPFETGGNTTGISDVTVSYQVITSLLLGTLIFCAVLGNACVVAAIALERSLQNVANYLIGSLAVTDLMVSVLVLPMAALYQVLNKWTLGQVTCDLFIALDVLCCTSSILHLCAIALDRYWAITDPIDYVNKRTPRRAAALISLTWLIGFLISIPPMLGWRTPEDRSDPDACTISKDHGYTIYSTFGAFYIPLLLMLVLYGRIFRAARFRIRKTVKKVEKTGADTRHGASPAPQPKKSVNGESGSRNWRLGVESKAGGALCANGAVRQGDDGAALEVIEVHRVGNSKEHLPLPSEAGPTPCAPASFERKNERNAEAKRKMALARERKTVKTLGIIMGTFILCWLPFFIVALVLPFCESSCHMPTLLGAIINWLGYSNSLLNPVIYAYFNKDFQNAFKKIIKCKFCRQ

5-HT2A receptor = 5-HT2A receptor (Homo sapiens, UniProt P28223); assay: 5-HT2A receptor radioligand competition assay (SPA)
MT1 (ML1A) (h) = biological target: T5, MT1 (ML1A) (h) (Homo sapiens, UniProt P48039); assay: Competition assay to measure binding affinity at MT1 receptor; conditions: test ligand 10 μM; [125I]2-iodomelatonin 0.01 nM
T5 construct: host or cells: CHO cells

5-HT1D (r) = biological target: T6, 5-HT1D (r) (Rattus norvegicus, UniProt P28565); assay: Competition assay to measure binding affinity at 5-HT1D receptor; conditions: test ligand 10 μM; [3H]serotonin 1 nM
T6 construct: host or cells: CHO cells

D3 (h) = biological target: T7, D3 (h) (Homo sapiens, UniProt P35462); assay: Competition assay to measure binding affinity at D3 receptor; conditions: test ligand 10 μM; [3H]methylspiperone […]
T7 construct: host or cells: CHO cells

alpha2A (h) = biological target: T8, alpha2A (h) (Homo sapiens, UniProt P08913); assay: Competition assay to measure binding affinity at alpha2A receptor; conditions: test ligand 10 μM, [3H]RX 821002 1 nM; for inhibition at 10 µM: read-out: α-2A, percent of control-specific binding
T8 construct: host or cells: CHO cells
T8 sequence (P08913 1-465): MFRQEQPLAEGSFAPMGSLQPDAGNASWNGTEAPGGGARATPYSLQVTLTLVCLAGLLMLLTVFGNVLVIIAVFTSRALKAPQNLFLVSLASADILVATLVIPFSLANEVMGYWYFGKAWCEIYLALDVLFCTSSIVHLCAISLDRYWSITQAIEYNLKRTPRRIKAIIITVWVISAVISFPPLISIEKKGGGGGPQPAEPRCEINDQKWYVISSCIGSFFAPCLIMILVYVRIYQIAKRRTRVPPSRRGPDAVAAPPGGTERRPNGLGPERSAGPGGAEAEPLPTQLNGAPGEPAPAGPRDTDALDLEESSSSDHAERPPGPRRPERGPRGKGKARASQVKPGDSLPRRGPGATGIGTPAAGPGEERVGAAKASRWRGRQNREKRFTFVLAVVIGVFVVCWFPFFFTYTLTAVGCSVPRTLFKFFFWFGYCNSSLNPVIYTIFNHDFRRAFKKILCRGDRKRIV

5-HT1A receptor [2] = biological target: T4, 5-HT1A receptor; assay: Functional 5-HT1A receptor cAMP assay in CHO-K1/5-HT1A/Gα15 cells; format: cell-based; conditions: for 5-HT1A receptor engagement (change in cAMP levels), in words: +5-HT1A cells, 4 μM forskolin, FIGS. 37B-37H
DAT (h) = biological target: T9, DAT (h) (Homo sapiens, UniProt Q01959); assay: Competition assay to measure binding affinity at dopamine transporter (DAT); conditions: test ligand 10 μM; [3H]BTCP 4 nM
T9 construct: host or cells: CHO cells

[3] = biological target: T10, human serotonin transporter (SERT) (Homo sapiens, UniProt P31645); assay: biochemical; format: binding
T10 construct: purchased PerkinElmer RBHSTM400UA

D2 (h) = biological target: T11, D2 (h) (Homo sapiens, UniProt P14416); assay: Competition assay to measure binding affinity at D2L receptor; conditions: test ligand 10 μM; [3H]methylspiperone 0.3 nM
T11 construct: host or cells: HEK-293 cells

NET (h) = biological target: T12, NET (h) (Homo sapiens, UniProt P23975); assay: Competition assay to measure binding affinity at norepinephrine transporter (NET); conditions: test ligand 10 μM; [3H]nisoxetine 1 nM
T12 construct: host or cells: CHO cells

5-HT2C (h) = biological target: T13, 5-HT2C (h) (Homo sapiens, UniProt P28335); assay: Competition assay to measure binding affinity at 5-HT2C receptor; conditions: test ligand 10 μM; [125I](±)DOI 0.1 nM
T13 construct: host or cells: HEK-293 cells
T13 sequence (P28335 33-458): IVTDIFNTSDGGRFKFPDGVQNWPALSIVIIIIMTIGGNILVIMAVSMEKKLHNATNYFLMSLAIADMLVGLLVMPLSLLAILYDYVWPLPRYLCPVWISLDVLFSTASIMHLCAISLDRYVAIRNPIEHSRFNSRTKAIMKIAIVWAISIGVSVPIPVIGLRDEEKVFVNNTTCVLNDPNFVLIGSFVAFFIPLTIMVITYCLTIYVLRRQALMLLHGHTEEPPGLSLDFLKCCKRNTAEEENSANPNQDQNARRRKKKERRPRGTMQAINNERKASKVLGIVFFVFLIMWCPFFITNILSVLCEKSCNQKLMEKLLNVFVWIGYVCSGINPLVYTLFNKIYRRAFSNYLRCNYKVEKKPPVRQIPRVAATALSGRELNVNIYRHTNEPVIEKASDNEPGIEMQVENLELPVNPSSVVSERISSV

T6 sequence (P28565 whole entry): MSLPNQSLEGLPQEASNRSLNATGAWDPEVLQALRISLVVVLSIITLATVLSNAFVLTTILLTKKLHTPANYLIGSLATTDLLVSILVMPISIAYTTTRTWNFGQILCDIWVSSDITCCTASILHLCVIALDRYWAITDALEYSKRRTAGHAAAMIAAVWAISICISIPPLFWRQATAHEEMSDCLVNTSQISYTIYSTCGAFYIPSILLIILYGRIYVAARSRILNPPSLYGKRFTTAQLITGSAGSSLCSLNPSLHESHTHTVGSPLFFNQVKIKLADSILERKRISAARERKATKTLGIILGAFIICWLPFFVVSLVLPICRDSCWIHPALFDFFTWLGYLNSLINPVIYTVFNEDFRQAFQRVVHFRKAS
T5 sequence (P48039 whole entry): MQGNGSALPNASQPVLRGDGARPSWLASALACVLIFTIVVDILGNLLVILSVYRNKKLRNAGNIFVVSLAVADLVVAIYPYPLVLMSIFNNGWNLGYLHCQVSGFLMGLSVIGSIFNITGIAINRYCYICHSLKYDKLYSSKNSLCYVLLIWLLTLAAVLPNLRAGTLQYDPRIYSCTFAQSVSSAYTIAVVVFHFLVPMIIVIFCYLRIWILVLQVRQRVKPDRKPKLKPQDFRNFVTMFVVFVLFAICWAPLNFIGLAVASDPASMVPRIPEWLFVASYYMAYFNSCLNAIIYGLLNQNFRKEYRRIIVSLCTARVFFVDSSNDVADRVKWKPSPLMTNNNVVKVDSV
T9 sequence (Q01959 whole entry): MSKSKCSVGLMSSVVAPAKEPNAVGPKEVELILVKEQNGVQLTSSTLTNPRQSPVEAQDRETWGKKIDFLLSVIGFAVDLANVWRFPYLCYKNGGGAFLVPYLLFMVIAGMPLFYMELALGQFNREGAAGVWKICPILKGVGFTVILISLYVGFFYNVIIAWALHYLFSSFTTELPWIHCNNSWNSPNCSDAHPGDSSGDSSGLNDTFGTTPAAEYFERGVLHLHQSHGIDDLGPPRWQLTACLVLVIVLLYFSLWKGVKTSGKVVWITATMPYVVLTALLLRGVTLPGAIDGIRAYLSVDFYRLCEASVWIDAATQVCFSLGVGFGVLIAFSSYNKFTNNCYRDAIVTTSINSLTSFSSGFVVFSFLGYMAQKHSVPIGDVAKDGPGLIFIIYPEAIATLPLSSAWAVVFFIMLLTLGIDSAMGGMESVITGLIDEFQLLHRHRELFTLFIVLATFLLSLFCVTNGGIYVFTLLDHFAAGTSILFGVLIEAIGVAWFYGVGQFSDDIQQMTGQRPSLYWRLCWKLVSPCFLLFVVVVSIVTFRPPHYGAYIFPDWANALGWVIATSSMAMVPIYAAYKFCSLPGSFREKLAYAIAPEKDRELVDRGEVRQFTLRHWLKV
T7 sequence (P35462 whole entry): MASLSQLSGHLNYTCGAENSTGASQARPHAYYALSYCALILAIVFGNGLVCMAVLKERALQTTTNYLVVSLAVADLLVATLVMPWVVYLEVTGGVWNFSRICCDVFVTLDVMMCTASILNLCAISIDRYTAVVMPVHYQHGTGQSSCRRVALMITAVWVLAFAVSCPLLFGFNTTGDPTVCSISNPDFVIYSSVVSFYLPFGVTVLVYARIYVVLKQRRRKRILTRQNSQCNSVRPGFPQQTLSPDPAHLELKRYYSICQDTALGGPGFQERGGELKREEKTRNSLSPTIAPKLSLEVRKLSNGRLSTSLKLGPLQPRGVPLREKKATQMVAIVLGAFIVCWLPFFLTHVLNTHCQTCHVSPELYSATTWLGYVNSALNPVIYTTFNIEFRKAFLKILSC
T3 sequence (P28222 whole entry): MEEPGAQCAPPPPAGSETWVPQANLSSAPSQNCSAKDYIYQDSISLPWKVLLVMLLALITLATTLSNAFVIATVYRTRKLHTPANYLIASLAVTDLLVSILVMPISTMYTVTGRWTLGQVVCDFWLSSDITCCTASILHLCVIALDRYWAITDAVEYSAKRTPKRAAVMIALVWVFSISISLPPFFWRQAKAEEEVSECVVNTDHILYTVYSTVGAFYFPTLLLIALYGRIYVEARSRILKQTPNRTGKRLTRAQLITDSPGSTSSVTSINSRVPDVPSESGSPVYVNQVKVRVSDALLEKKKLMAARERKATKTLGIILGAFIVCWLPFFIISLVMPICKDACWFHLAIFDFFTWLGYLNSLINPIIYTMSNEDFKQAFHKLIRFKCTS
T11 sequence (P14416 whole entry): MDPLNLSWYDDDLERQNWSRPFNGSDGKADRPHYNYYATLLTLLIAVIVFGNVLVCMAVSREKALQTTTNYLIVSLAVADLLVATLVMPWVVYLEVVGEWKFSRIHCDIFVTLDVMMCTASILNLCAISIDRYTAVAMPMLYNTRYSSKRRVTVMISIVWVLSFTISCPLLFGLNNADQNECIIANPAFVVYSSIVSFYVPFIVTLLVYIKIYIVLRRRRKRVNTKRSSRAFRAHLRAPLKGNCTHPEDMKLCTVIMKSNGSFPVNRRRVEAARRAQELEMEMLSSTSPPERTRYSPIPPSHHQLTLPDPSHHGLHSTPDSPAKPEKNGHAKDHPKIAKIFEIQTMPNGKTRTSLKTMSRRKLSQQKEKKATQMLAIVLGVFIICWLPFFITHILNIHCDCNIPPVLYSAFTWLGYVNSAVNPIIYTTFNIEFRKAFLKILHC
T12 sequence (P23975 whole entry): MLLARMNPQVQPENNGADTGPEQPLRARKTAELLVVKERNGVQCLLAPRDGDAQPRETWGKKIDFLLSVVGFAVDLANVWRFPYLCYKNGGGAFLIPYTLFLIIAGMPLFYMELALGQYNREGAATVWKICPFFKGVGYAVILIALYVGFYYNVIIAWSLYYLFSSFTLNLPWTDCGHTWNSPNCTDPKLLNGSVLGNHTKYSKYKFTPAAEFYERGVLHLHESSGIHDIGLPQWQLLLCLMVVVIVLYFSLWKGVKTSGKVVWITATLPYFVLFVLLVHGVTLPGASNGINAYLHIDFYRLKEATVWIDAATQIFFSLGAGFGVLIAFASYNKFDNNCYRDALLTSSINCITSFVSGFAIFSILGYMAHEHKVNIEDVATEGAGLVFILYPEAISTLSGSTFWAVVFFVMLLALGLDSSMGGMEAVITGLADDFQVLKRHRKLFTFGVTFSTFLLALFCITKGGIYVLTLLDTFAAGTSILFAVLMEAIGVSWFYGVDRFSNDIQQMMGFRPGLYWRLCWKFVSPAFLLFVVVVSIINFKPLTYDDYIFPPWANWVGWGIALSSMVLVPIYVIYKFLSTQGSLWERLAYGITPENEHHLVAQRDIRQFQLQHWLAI
T2 sequence (P34969 whole entry): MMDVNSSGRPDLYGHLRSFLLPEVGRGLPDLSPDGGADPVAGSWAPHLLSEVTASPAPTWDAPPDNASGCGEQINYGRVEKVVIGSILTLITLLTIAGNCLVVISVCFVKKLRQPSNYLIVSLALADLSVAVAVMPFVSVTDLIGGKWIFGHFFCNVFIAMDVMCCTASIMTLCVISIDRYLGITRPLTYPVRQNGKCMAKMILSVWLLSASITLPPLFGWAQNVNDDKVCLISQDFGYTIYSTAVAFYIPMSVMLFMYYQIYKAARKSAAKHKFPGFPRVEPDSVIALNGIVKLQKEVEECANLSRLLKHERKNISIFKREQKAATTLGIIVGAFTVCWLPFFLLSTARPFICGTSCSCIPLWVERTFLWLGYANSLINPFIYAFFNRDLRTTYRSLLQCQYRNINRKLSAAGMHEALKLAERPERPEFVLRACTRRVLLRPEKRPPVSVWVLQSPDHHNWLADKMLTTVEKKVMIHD
Chain of 5-HT2A receptor (P28223 whole entry): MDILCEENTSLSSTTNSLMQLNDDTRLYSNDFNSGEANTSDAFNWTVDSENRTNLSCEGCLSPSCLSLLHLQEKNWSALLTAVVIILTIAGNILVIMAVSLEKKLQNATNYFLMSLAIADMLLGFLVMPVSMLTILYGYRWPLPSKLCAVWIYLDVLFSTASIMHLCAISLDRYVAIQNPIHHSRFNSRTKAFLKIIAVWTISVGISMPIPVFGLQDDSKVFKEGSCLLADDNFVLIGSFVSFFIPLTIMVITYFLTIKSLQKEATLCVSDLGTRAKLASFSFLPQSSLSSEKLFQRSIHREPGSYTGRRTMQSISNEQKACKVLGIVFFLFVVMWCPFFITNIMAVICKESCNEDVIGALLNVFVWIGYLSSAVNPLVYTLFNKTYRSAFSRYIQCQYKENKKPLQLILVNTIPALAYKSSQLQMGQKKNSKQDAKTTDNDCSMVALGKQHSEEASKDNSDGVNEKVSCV
T10 sequence (P31645 whole entry): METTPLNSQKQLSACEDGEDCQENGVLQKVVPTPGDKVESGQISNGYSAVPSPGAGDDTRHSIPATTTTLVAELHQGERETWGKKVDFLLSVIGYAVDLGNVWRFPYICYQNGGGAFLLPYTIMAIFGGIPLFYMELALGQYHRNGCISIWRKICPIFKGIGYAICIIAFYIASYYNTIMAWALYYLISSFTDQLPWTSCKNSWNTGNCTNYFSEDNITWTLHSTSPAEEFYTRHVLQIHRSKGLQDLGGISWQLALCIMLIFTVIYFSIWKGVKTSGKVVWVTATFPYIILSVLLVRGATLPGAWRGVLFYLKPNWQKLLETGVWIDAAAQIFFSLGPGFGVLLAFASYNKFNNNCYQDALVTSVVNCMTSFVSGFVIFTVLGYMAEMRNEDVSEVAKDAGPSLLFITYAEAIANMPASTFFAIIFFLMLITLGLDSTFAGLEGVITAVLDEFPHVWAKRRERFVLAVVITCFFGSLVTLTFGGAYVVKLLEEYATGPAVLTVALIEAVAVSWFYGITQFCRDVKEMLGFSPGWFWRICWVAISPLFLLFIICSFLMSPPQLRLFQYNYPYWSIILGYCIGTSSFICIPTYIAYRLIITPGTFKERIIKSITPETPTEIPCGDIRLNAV

COc1cc(CCN)c(OC)cc1Br [2C-B, reference compound]
HT2B, percent of control-specific binding (5-HT2B (h)): 99% | HT7, percent of control-specific binding (5-HT7 (h)): 88% | HT1B, percent of control-specific binding (5-HT1B (h)): 77% | Ki (5-HT1A receptor [1]): 0.2 µM | Ki (5-HT2A receptor; read-out: 5-HT2A, Ki, competition with 1 nM [3H]ketanserin, test compound 3 nM to 1 mM): 0.414 µM | MT1, percent of control-specific binding (MT1 (ML1A) (h)): 86% | HT1D, percent of control-specific binding (5-HT1D (r)): 100% | D3, percent of control-specific binding (D3 (h)): 43% | α-2A, percent of control-specific binding (alpha2A (h)): 88% | 5-HT1A receptor engagement (change in cAMP levels), in words (5-HT1A receptor [2]): reduction in cAMP levels | EC50 (5-HT1A receptor [2]; reduction of cAMP in +5-HT1A cells stimulated with 4 μM forskolin, 20 min, read-out: 5-HT1A, EC50): 5.95 µM | DAT, percent of control-specific binding (DAT (h)): 5% | SERT binding, binding curve in words [3]: bind SERT to varying degrees | Ki ([3]; read-out: SERT, Ki): 11.4 µM | D2, percent of control-specific binding (D2 (h)): 42% | NET, percent of control-specific binding (NET (h)): 13%

COc1cc2c(cc1CCN1CCCC1)OCO2 [A(XIV)]
HT2B, percent of control-specific binding (5-HT2B (h)): 63% | HT7, percent of control-specific binding (5-HT7 (h)): 75% | HT1B, percent of control-specific binding (5-HT1B (h)): 7% | Ki (5-HT1A receptor [1]): 0.0462 µM | Ki (5-HT2A receptor): 11 µM | HT2C, percent of control-specific binding (5-HT2C (h)): 90% | MT1, percent of control-specific binding (MT1 (ML1A) (h)): 7% | HT1D, percent of control-specific binding (5-HT1D (r)): 28% | D3, percent of control-specific binding (D3 (h)): 46% | inhibition at 10 µM (alpha2A (h)): 54% | EC50 (5-HT1A receptor [2]): 1.17 µM | 5-HT1A receptor engagement (change in cAMP levels), in words (5-HT1A receptor [2]): receptor modulation at evaluated ligand concentrations | DAT, percent of control-specific binding (DAT (h)): 0% | Ki [3]: 23.2 µM | D2, percent of control-specific binding (D2 (h)): 12% | NET, percent of control-specific binding (NET (h)): 0%

COc1cc2c(cc1CCNCCO)OCO2 [A(XXIV)]
HT2B, percent of control-specific binding (5-HT2B (h)): 43% | HT7, percent of control-specific binding (5-HT7 (h)): 35% | HT1B, percent of control-specific binding (5-HT1B (h)): 0% | Ki (5-HT1A receptor [1]): 0.993 µM | Ki (5-HT2A receptor): 26 µM | HT2C, percent of control-specific binding (5-HT2C (h)): 76% | MT1, percent of control-specific binding (MT1 (ML1A) (h)): 0% | HT1D, percent of control-specific binding (5-HT1D (r)): 29% | D3, percent of control-specific binding (D3 (h)): 13% | inhibition at 10 µM (alpha2A (h)): 11% | EC50 (5-HT1A receptor [2]): 32.3 µM | DAT, percent of control-specific binding (DAT (h)): 5% | Ki [3]: 52.2 µM | D2, percent of control-specific binding (D2 (h)): 7% | NET, percent of control-specific binding (NET (h)): 0%

c1cc(CCN2CCCC2)c2c(c1)OCO2 [A(XXIX)]
HT2B, percent of control-specific binding (5-HT2B (h)): 48% | HT7, percent of control-specific binding (5-HT7 (h)): 48% | HT1B, percent of control-specific binding (5-HT1B (h)): 3% | Ki (5-HT1A receptor [1]): 0.0132 µM | Ki (5-HT2A receptor): 8 µM | HT2C, percent of control-specific binding (5-HT2C (h)): 87% | MT1, percent of control-specific binding (MT1 (ML1A) (h)): 1% | HT1D, percent of control-specific binding (5-HT1D (r)): 44% | D3, percent of control-specific binding (D3 (h)): 22% | inhibition at 10 µM (alpha2A (h)): 57% | EC50 (5-HT1A receptor [2]): 0.352 µM | DAT, percent of control-specific binding (DAT (h)): 49% | Ki [3]: 10.1 µM | D2, percent of control-specific binding (D2 (h)): 0% | NET, percent of control-specific binding (NET (h)): 2%
